Measurements taken from patent publication US20130217664A1, “NOVEL COMPOUNDS USEFUL FOR THE TREATMENT OF DEGENERATIVE AND INFLAMMATORY DISEASES” (priority 2012, published 2013).
Like-named read-outs stand apart in the source and are kept apart here.

Experiments:
human JAK1 = target: T1, human JAK1 (Homo sapiens, UniProt P23458); test: JAK1 inhibition assay (polyGT substrate / Ulight-JAK1 peptide); type: biochemical; details: recombinant human JAK1 catalytic domain; polyGT or Ulight-JAK1 peptide assay
T1 construct: catalytic domain, amino acids 866-1154; catalog number PV4774; purchased Invitrogen PV4774
In short: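 Signal scaled between vehicle and 10 μM staurosporine. Radiometric polyGT reactions ran 45 min at 30 °C, counted after phosphoric-acid stop. Ulight peptide reactions ran 60 min at room temperature, fluorescence read after adding Eu-PT66 detection mix with EDTA.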

human JAK3 = target: T2, human JAK3 (Homo sapiens, UniProt P52333); test: JAK3 inhibition assay; type: biochemical; details: recombinant human JAK3 catalytic domain; polyGT substrate
T2 construct: catalytic domain (amino acids 781-1124; catalog number PV3855); purchased Invitrogen PV3855
In short: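 Radiometric kinase assay: 0.5 ng JAK3 with 2.5 μg polyGT in Tris pH 7.5/MgCl2 buffer, 1 μM ATP plus 0.25 μCi 33P-γ-ATP, 1% DMSO, 45 min at 30 °C, stopped with phosphoric acid.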

[1] = tested on: pSTAT1(2)-luciferase reporter in HeLa cells triggered with human OSM; test: JAK-STAT signalling assay; type: cell-based; details: HeLa cells, pSTAT1(2)-luciferase reporter, human OSM 33 ng/mL, read-out: JAK-STAT IC50
In short: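 Compound added 60 min before 33 ng/mL (final) human OSM; after overnight stimulation at 37 °C, luciferase signal from a transiently transfected pSTAT1(2) reporter in HeLa cells was read, with LacZ as internal control. EC50 derived from percent-inhibition dose-response curves.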

T2 sequence (P52333 781-1124): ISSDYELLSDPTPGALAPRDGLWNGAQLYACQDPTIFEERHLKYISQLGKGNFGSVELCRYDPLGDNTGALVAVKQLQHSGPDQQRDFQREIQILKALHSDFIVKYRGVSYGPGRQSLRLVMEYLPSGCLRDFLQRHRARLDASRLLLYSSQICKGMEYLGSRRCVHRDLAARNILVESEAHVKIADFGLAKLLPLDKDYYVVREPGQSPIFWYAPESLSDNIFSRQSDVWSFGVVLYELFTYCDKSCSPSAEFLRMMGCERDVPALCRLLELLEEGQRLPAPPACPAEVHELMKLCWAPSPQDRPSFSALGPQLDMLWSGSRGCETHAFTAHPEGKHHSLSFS
T1 sequence (P23458 866-1154): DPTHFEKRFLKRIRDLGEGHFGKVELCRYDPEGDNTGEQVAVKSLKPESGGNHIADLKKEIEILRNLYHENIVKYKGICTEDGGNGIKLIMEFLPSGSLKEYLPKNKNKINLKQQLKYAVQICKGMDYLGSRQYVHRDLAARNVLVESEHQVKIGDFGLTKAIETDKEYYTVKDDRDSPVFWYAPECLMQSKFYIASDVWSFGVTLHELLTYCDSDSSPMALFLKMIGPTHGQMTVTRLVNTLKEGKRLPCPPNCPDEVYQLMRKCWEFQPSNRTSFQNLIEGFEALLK

| SMILES | IC50 (human JAK1) | IC50 (human JAK3) | IC50 ([1]; Homo sapiens, HeLa) | IC50 [1] |
| --- | --- | --- | --- | --- |
| CCc1cc(C(=O)OC)ccc1N(C)c1cc2c(cn1)ncn2C [Compound 80, Methyl 3-ethyl-4-(methyl(1-methyl-1H-imidazo[4,5-c]pyridin-6-yl)amino)benzoate] | 0.01 to 100 nM | > 1000 nM | > 1000 nM | – |
| CCc1cc(CO)ccc1N(C)c1cc2c(cn1)ncn2C [Compound 81, (3-Ethyl-4-(methyl(1-methyl-1H-imidazo[4,5-c]pyridin-6-yl)amino)phenyl)MeOH] | 0.01 to 100 nM | 101 to 500 nM | 1 to 500 nM | – |
| CCc1ccc(C#N)cc1N(C)c1cc2c(cn1)ncn2C [Compound 83, 4-ethyl-3-(methyl(1-methyl-1H-imidazo[4,5-c]pyridin-6-yl)amino)benzonitrile] | 0.01 to 100 nM | > 1000 nM | > 1000 nM | – |
| CCc1ccc(F)cc1N(C)c1cc2c(cn1)ncn2C [Compound 84, N-(2-ethyl-5-fluorophenyl)-N,1-dimethyl-1H-imidazo[4,5-c]pyridin-6-amine] | 0.01 to 100 nM | 501 to 1000 nM | 501 to 1000 nM | – |
| CCc1cc(C(=O)NC)ccc1N(C)c1cc2c(cn1)ncn2C [Compound 85] | 0.01 to 100 nM | > 1000 nM | > 1000 nM | – |
| CCc1cc(C(=O)NCCC#N)ccc1N(C)c1cc2c(cn1)ncn2C [Compound 86, N-(2-Cyanoethyl)-3-ethyl-4-(methyl(1-methyl-1H-imidazo[4,5-c]pyridin-6-yl)amino)benzamide] | 0.01 to 100 nM | > 1000 nM | > 1000 nM | – |
| Cc1ccc(Oc2ccc(C#N)nc2)cc1N(C)c1cc2c(cn1)ncn2C [Compound 91, 5-(4-methyl-3-(methyl(1-methyl-1H-imidazo[4,5-c]pyridin-6-yl)amino)phenoxy)picolino-nitrile] | 0.01 to 100 nM | > 1000 nM | – | > 1000 nM |
| CCc1cc(-c2cnn(C)c2)ccc1N(C)c1cc2c(cn1)ncn2C [Compound 93, N-(2-Ethyl-4-(1-methyl-1H-pyrazol-4-yl)phenyl)-N,1-dimethyl-1H-imidazo[4,5-d]pyridin-6-amine] | 0.01 to 100 nM | 101 to 500 nM | 1 to 500 nM | – |
| CCc1cc(-c2cccnc2)ccc1N(C)c1cc2c(cn1)ncn2C [Compound 94, N-(2-ethyl-4-(pyridin-3-yl)phenyl)-N,1-dimethyl-1H-imidazo[4,5-c]pyridin-6-amine] | 0.01 to 100 nM | 501 to 1000 nM | 1 to 500 nM | – |
| CCc1cc(-c2cncnc2)ccc1N(C)c1cc2c(cn1)ncn2C [Compound 95, N-(2-ethyl-4-(pyrimidin-5-yl)phenyl)-N,1-dimethyl-1H-imidazo[4,5-c]pyridin-6-amine] | 0.01 to 100 nM | > 1000 nM | 501 to 1000 nM | – |
| CCc1cc(C(=O)NCc2ccccc2)ccc1N(C)c1cc2c(cn1)ncn2C [Compound 98, N-benzyl-3-ethyl-4-(methyl(1-methyl-1H-imidazo[4,5-c]pyridin-6-yl)amino)benzamide] | 0.01 to 100 nM | 501 to 1000 nM | > 1000 nM | – |
| CCc1cc(C(C)O)ccc1N(C)c1cc2c(cn1)ncn2C (stereo not drawn) [Compound 101, 1-(3-Ethyl-4-(methyl(1-methyl-1H-imidazo[4,5-c]pyridin-6-yl)amino)phenyl)ethanol] | 0.01 to 100 nM | 101 to 500 nM | 1 to 500 nM | – |
| CCNC(=O)c1ccc(N(C)c2cc3c(cn2)ncn3C)c(CC)c1 [Compound 102, N,3-diethyl-4-(methyl(1-methyl-1H-imidazo[4,5-c]pyridin-6-yl)amino)benzamide] | 0.01 to 100 nM | > 1000 nM | > 1000 nM | – |
| CCc1cc(C(C)(C)O)ccc1N(C)c1cc2c(cn1)ncn2C [Compound 103, 2-(3-Ethyl-4-(methyl(1-methyl-1H-imidazo[4,5-c]pyridin-6-yl)amino)phenyl)propan-2-ol] | 0.01 to 100 nM | 101 to 500 nM | > 1000 nM | – |
| CCc1cc(COC)ccc1N(C)c1cc2c(cn1)ncn2C [Compound 105, N-(2-Ethyl-4-(methoxymethyl)phenyl)-N,1-dimethyl-1H-imidazo[4,5-c]pyridin-6-amine] | 0.01 to 100 nM | 101 to 500 nM | > 1000 nM | – |
| CCc1cc(O)ccc1N(C)c1cc2c(cn1)ncn2C [Compound 107, 3-ethyl-4-(methyl(1-methyl-1H-imidazo[4,5-c]pyridin-6-yl)amino)phenol] | 0.01 to 100 nM | 101 to 500 nM | 501 to 1000 nM | – |

| SMILES | IC50 (human JAK1) | IC50 (human JAK3) | IC50 ([1]; Homo sapiens, HeLa) | IC50 [1] |
| --- | --- | --- | --- | --- |
| CCc1cc(OC2CCN(S(C)(=O)=O)C2)ccc1N(C)c1cc2c(cn1)ncn2C (stereo not drawn) [Compound 110, N-(2-Ethyl-4-((1-(methylsulfonyl)pyrrolidin-3-yl)oxy)phenyl)-N,1-dimethyl-1H-imidazo[4,5-c]pyridin-6-amine] | 0.01 to 100 nM | 101 to 500 nM | > 1000 nM | – |
| CCc1cc(Cn2ccnc2)ccc1N(C)c1cc2c(cn1)ncn2C [Compound 111, N-(4-((1H-imidazol-1-yl)methyl)-2-ethylphenyl)-N,1-dimethyl-1H-imidazo[4,5-c]pyridin-6-amine] | 0.01 to 100 nM | 101 to 500 nM | 501 to 1000 nM | – |
| CCc1cc(-c2ccc(C#N)nc2)ccc1N(C)c1cc2c(cn1)ncn2C [Compound 114, 5-(3-ethyl-4-(methyl(1-methyl-1H-imidazo[4,5-c]pyridin-6-yl)amino)phenyl)picolino-nitrile] | 0.01 to 100 nM | 101 to 500 nM | 1 to 500 nM | – |
| CCc1cc(-c2cnc(NC(C)=O)nc2)ccc1N(C)c1cc2c(cn1)ncn2C [Compound 115, N-(5-(3-Ethyl-4-(methyl(1-methyl-1H-imidazo[4,5-c]pyridin-6-yl)amino)phenyl)pyrimidin-2-yl)acetamide] | 0.01 to 100 nM | > 1000 nM | 1 to 500 nM | – |
| CCc1cc(C(=O)NCCN(C)C)ccc1N(C)c1cc2c(cn1)ncn2C [Compound 119, N-(2-(dimethylamino)ethyl)-3-ethyl-4-(methyl(1-methyl-1H-imidazo[4,5-c]pyridin-6-yl)amino)benzamide] | 0.01 to 100 nM | > 1000 nM | > 1000 nM | – |
| CCc1cc(C(=O)NCC#N)ccc1N(C)c1cc2c(cn1)ncn2C [Compound 120, N-(cyanomethyl)-3-ethyl-4-(methyl(1-methyl-1H-imidazo[4,5-c]pyridin-6-yl)amino)benzamide] | 0.01 to 100 nM | 101 to 500 nM | > 1000 nM | – |
| CCc1ccc(C(=O)NC(C)(C)C)cc1N(C)c1cc2c(cn1)ncn2C [Compound 123, N-tert-butyl-4-ethyl-3-(methyl(1-methyl-1H-imidazo[4,5-c]pyridin-6-yl)amino)benzamide] | 0.01 to 100 nM | > 1000 nM | > 1000 nM | – |
| CCc1cc(-c2ccsc2)ccc1N(C)c1cc2c(cn1)ncn2C [Compound 127, N-(2-ethyl-4-(thiophen-3-yl)phenyl)-N,1-dimethyl-1H-imidazo[4,5-c]pyridin-6-amine] | 0.01 to 100 nM | 0.01 to 100 nM | 1 to 500 nM | – |
| CCc1cc(-c2ccc(CNC(=O)OC(C)(C)C)s2)ncc1N(C)c1cc2c(cn1)ncn2C [Compound 302] | 0.01 to 100 nM | > 1000 nM | – | > 1000 nM |
| CCc1cc(-c2ccc(CN)s2)ncc1N(C)c1cc2c(cn1)ncn2C [Compound 303, [6-(5-Aminomethyl-thiophen-2-yl)-4-ethyl-pyridin-3-yl]-methyl-(1-methyl-1H-imidazo[4,5-c]pyridin-6-yl)-amine] | 501 to 1000 nM | > 1000 nM | – | > 1000 nM |
| CCc1cc(-c2ccc(Cl)s2)ncc1N(C)c1cc2c(cn1)ncn2C [Compound 304, [6-(5-Chloro-thiophen-2-yl)-4-ethyl-pyridin-3-yl]-methyl-(1-methyl-1H-imidazo[4,5-c]pyridin-6-yl)-amine] | 0.01 to 100 nM | 0.01 to 100 nM | – | 1 to 500 nM |
| CCc1cc(-c2ccc(C)s2)ncc1N(C)c1cc2c(cn1)ncn2C [Compound 311, [4-Ethyl-6-(5-methyl-thiophen-2-yl)-pyridin-3-yl]-methyl-(1-methyl-1H-imidazo[4,5-c]pyridin-6-yl)-amine] | 0.01 to 100 nM | 101 to 500 nM | 1 to 500 nM | – |
| COc1cc(-c2c(C)nn(C)c2C)ncc1N(C)c1cc2c(cn1)ncn2C [Compound 312] | > 1000 nM | > 1000 nM | – | > 1000 nM |
| COc1cc(N2CCOCC2)ncc1N(C)c1cc2c(cn1)ncn2C [Compound 313, (4-Methoxy-6-morpholin-4-yl-pyridin-3-yl)-methyl-(1-methyl-1H-imidazo[4,5-c]pyridine-6-yl)-amine] | 0.01 to 100 nM | 501 to 1000 nM | – | > 1000 nM |
| COc1ccc(S(=O)(=O)N2CCCCC2)cc1N(C)c1cc2c(cn1)ncn2C [Compound 314, [2-Methoxy-5-(piperidine-1-sulfonyl)-phenyl]-methyl-(1-methyl-1H-imidazo[4,5-d]pyridin-6-yl)-amine] | > 1000 nM | > 1000 nM | – | > 1000 nM |
| COc1cc(S(=O)(=O)N2CCOCC2)ccc1N(C)c1cc2c(cn1)ncn2C [Compound 315, [2-Methoxy-4-(morpholine-4-sulfonyl)-phenyl]-methyl-(1-methyl-1H-imidazo[4,5-d]pyridin-6-yl)-amine] | > 1000 nM | > 1000 nM | – | > 1000 nM |
